Values quoted from earlier work in US20120219529A1, “Silver ion compositions of pectins” (George H. Scherr Trust, priority 2011, published 2012).

[Ag+].[Ag+].[O-2] [Ag2O]
solubility in water: insoluble in water
